From article PMC9736855, “Discovery of 3-Amino-1H-pyrazole-Based Kinase Inhibitors to Illuminate the Understudied PCTAIRE Family” (International Journal of Molecular Sciences, 2022)

Experiments:
SPRK1 = biological target: T1, SPRK1 (Homo sapiens, UniProt Q96SB4); assay: DSF; format: binding
T1 construct: purchased in-house DSF panel (SGC Frankfurt)
Description: (§2) Recombinant protein kinase domains with a concentration of 2 μM were mixed with a 10 μM compound solution in DMSO, 20 mM HEPES, pH 7.5, and 500 mM NaCl. SYPRO Orange (5000×, Invitrogen) was added as a fluorescence probe (1 µl per mL). Subsequently, temperature-dependent protein unfolding profiles were measured, using the QuantStudio™ 5 realtime PCR machine (Thermo Fisher, Waltham, MA, USA). […] The temperature was raised with a step rate of 3 °C per minute. Data points were analyzed with the internal software (Thermal Shift SoftwareTM Version 1.4, Thermo Fisher) using the Boltzmann equation to determine the inflection point of the transition curve [56]. Differences in melting temperature are given as ΔTm values in °C. Measurements were performed in duplicates.

NEK7 = biological target: T2, NEK7 (Homo sapiens, UniProt Q8TDX7); assay: DSF; format: binding
T2 construct: purchased in-house DSF panel (SGC Frankfurt)
Description: as §2

TLK1 = biological target: T3, TLK1 (Homo sapiens, UniProt Q9UKI8); assay: DSF; format: binding
T3 construct: purchased in-house DSF panel (SGC Frankfurt)
Description: as §2

BRPF1B = biological target: T4, BRPF1B (Homo sapiens, UniProt P55201); assay: DSF; format: binding
T4 construct: purchased in-house DSF panel (SGC Frankfurt)

MAPKAPK2 = biological target: T5, MAPKAPK2 (Homo sapiens, UniProt P49137); assay: DSF; format: binding
T5 construct: purchased in-house DSF panel (SGC Frankfurt)
Description: Recombinant protein kinase domains with a concentration of 2 μM were mixed with a 10 μM compound solution in DMSO, 20 mM HEPES, pH 7.5, and 500 mM NaCl. SYPRO Orange (5000×, Invitrogen) was added as a fluorescence probe (1 µl per mL). Subsequently, temperature-dependent protein unfolding profiles were measured, using the QuantStudio™ 5 realtime PCR machine (Thermo Fisher, Waltham, MA, USA). […] The temperature was raised with a step rate of 3 °C per minute. Data points were analyzed with the internal software (Thermal Shift SoftwareTM Version 1.4, Thermo Fisher) using the Boltzmann equation to determine the inflection point of the transition curve. Differences in melting temperature are given as ΔTm values in °C. Measurements were performed in duplicates.

MAPK8 = biological target: T6, MAPK8 (Homo sapiens, UniProt P45983); assay: DSF; format: binding
T6 construct: purchased in-house DSF panel (SGC Frankfurt)
Description: as §2

MAP3K5 = biological target: T7, MAP3K5 (Homo sapiens, UniProt Q99683); assay: DSF; format: binding
T7 construct: purchased in-house DSF panel (SGC Frankfurt)
Description: as §2

RPS6KA5 = assay: DSF; format: binding
Description: as §2

EPHB1 = biological target: T8, EPHB1 (Homo sapiens, UniProt P54762); assay: DSF; format: binding
T8 construct: purchased in-house DSF panel (SGC Frankfurt)
Description: as §2

JNK3 = biological target: T9, JNK3 (Homo sapiens, UniProt P53779); set-up: method as in PMID 19053485; settings: cited from earlier work
T9 construct: Recombinant protein kinase domains with a concentration of 2 μM were mixed; made in house

CDK2 = biological target: T10, CDK2 (Homo sapiens, UniProt P24941); settings: cited from earlier work
T10 construct: purchased in-house DSF panel (SGC Frankfurt)

CDK1/Cyclin B1 = biological target: T11, CDK1/Cyclin B1 (Homo sapiens, UniProt P06493); assay: NanoBRET; format: cell-based; settings: read-out: NanoBRET EC50 ± SEM CDK1/Cyclin B1
T11 construct: Full-length kinases were obtained as plasmids cloned in frame with a terminal NanoLuc-fusion; CS1810C170 (CCNB1); host or cells: HEK293T
Summary of the method: (§1)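 Full-length kinases fused to NanoLuc were expressed in HEK293T cells for 20 h, then cells were equilibrated with serially diluted inhibitor and tracer at its KD,app for 2 h at 37 °C/5% CO2. BRET (450/610 nm) was read after substrate plus extracellular NanoLuc inhibitor; EC50 from normalized 3-parameter fit.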

CDK5/CDK5R1 = biological target: T12, CDK5/CDK5R1 (Homo sapiens, UniProt Q00535); assay: NanoBRET; format: cell-based; settings: read-out: NanoBRET EC50 ± SEM CDK5/CDK5R1
T12 construct: Full-length kinases were obtained as plasmids cloned in frame with a terminal NanoLuc-fusion; CS1810C173 (CDK5R1); host or cells: HEK293T
Summary of the method: as §1

CDK5/CDK5R2 = biological target: T13, CDK5/CDK5R2 (Homo sapiens, UniProt Q00535); assay: NanoBRET; format: cell-based; settings: read-out: NanoBRET EC50 ± SEM CDK5/CDK5R2
T13 construct: Full-length kinases were obtained as plasmids cloned in frame with a terminal NanoLuc-fusion; CS1810C174 (CDK5R2); host or cells: HEK293T
Summary of the method: as §1

CDK5 = settings: cited from earlier work
[1] = Microsomal stability assay; format: in vitro ADME, Sprague-Dawley rats; settings: rat liver microsomes, 10 µM, 37 °C, 60 min
Description: The lead structure 1 was not included in this assay due to its promiscuous behaviour. Since 1 is presumably not suitable as a tool compound to study the effect of selective kinase inhibition in an in vivo application, we focused on the newly synthesized compounds 21i and 43d. The compounds were tested against an activated microsome mix derived from the liver of Sprague-Dawley rats, as previously reported. 21i and 43d were incubated at 37 °C for 60 min and the amount of unmetabolized compound was determined in 15 min steps, using high-performance liquid chromatography (HPLC).
The solubilized test compound (5 μL, final concentration 10 µM) was preincubated at 37 °C in 432 μL of phosphate buffer (0.1 M, pH 7.4) together with 50 μL NADPH regenerating system (30 mM glucose 6 phosphate, 4 U/mL glucose 6 phosphate dehydrogenase, 10 mM NADP, 30 mM MgCl2). After 5 min, the reaction was started by the addition of 13 μL of microsome mix from the liver of Sprague−Dawley rats (Invitrogen; 20 mg protein/mL in 0.1 M phosphate buffer) in a shaking water bath at 37 °C. The reaction was stopped by adding 500 μL of ice cold methanol at 0, 15, 30 and 60 min. […] The amounts of the test compound were quantified by an external calibration curve. Data are expressed as the mean ± SEM remaining compound from three independent experiments.

PCTAIRE family = assay: NanoBRET; format: cell-based; settings: read-out: cellular potency, other members of the PCTAIRE family
Summary of the method: as §1

T8 sequence (P54762 602-896): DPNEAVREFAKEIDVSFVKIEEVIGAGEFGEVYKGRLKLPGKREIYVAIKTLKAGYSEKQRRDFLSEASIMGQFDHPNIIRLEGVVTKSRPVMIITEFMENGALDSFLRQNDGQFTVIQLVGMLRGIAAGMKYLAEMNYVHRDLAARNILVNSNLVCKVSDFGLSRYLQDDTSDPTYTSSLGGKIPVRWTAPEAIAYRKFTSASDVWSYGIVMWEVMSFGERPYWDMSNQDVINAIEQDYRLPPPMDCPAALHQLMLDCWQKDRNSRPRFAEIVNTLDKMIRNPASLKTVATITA
T1 sequence (Q96SB4 whole entry): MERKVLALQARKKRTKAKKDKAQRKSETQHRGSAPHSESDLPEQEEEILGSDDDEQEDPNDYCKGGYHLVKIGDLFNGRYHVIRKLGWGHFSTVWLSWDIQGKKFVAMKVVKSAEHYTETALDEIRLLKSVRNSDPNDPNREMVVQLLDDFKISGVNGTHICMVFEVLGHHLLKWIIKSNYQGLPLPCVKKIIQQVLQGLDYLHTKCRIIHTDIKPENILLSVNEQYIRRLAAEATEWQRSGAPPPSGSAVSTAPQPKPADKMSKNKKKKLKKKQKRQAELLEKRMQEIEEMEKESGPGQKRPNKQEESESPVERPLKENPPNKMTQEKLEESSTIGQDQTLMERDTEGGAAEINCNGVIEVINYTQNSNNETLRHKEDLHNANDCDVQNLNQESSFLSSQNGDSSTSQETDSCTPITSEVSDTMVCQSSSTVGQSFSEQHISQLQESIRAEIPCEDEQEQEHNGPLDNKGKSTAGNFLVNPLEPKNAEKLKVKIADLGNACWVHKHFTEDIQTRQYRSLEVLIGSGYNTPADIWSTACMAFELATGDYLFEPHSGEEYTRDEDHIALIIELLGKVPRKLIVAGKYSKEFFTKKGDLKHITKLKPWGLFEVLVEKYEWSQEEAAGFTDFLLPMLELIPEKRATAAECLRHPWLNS
T11 sequence (P06493 whole entry, the tested form may be a part): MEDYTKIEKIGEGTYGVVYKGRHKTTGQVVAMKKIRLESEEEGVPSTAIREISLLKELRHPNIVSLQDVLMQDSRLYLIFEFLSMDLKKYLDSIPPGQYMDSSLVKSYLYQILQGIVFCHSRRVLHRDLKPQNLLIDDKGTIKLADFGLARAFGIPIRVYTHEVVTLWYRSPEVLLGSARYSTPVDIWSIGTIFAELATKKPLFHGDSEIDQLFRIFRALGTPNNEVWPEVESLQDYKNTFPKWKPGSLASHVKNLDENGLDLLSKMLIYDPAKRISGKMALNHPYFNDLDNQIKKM
T11 sequence (P14635 whole entry partner, the tested form may be a part): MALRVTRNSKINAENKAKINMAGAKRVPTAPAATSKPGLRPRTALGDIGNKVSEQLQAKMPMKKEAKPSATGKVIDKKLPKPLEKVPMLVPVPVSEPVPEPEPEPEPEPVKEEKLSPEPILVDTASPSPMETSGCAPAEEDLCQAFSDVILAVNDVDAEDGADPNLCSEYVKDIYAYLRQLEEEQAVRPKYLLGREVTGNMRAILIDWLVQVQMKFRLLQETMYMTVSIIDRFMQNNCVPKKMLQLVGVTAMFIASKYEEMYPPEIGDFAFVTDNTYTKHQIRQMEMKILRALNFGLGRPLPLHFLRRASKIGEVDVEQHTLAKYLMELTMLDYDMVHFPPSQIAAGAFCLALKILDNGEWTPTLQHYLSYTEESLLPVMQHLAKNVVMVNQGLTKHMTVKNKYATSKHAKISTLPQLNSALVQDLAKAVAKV
T6 sequence (P45983 1-364): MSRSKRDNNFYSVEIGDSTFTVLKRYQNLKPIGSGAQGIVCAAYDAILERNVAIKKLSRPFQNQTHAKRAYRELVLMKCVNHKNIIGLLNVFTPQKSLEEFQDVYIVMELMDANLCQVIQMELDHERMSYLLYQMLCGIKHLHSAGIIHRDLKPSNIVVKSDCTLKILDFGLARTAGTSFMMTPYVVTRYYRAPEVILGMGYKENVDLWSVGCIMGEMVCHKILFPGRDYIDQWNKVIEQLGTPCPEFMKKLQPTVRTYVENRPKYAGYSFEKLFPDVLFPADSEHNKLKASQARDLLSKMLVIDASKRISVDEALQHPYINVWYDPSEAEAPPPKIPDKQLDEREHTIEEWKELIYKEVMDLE
T5 sequence (P49137 64-325): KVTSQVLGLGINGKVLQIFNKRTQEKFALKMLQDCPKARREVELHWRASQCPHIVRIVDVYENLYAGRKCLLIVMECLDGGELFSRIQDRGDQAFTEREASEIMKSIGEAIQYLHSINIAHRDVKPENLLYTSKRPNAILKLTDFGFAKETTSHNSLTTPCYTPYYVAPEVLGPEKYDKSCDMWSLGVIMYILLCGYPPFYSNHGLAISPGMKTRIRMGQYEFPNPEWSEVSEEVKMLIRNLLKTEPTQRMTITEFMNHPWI
T12 sequence (Q00535 whole entry, the tested form may be a part): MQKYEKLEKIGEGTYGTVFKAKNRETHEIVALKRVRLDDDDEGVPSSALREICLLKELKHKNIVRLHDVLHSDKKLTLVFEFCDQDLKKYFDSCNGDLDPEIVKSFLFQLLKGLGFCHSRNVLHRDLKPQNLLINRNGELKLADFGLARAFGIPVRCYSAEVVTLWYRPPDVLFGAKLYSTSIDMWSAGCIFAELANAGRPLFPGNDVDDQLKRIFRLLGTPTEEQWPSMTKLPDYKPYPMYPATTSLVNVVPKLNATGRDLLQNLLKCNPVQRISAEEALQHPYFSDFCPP
T12 sequence (Q15078 whole entry partner, the tested form may be a part): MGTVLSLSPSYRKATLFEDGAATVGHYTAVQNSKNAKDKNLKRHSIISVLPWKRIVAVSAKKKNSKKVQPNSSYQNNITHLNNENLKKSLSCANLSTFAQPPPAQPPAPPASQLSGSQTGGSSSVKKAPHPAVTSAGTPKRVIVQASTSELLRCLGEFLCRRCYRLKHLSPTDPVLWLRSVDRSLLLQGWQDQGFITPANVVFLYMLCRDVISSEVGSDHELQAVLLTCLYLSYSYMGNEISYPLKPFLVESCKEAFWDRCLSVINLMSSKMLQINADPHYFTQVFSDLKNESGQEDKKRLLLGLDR
T13 sequence (Q00535 whole entry, the tested form may be a part): as the sequence (Q00535 whole entry, the tested form may be a part) above
T13 sequence (Q13319 whole entry partner, the tested form may be a part): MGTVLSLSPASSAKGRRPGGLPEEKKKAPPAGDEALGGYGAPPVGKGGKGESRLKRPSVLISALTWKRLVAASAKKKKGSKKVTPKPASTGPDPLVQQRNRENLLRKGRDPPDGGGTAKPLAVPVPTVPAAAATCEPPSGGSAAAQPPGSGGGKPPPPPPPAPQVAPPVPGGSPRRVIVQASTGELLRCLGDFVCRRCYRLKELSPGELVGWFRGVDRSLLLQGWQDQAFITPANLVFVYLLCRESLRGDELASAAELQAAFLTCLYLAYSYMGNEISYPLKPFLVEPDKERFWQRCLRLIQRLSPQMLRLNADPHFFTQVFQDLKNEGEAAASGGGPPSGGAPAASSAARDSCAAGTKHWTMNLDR
T2 sequence (Q8TDX7 whole entry): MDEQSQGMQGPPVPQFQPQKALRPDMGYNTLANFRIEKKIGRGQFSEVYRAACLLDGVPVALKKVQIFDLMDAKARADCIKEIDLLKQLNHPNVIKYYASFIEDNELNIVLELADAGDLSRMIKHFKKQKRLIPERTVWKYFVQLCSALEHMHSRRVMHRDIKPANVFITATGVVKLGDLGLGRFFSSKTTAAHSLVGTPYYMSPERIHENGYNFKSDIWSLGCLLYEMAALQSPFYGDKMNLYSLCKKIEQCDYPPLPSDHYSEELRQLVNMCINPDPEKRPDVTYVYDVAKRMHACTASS
T7 sequence (Q99683 659-951): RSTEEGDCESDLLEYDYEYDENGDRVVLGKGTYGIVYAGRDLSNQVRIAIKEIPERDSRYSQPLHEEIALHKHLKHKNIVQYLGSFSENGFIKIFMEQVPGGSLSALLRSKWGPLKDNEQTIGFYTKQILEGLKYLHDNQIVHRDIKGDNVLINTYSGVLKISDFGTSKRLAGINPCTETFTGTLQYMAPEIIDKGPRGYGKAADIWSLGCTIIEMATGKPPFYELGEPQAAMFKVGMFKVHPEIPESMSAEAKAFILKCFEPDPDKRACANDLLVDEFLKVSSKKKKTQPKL
T3 sequence (Q9UKI8 456-734): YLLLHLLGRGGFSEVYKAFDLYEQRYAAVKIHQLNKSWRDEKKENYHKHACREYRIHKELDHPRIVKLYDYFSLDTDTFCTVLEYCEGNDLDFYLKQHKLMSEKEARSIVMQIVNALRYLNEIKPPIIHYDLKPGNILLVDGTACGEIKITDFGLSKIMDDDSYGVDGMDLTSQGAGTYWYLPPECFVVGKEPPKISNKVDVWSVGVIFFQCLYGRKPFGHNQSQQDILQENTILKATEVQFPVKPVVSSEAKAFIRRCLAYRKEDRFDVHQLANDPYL
T9 sequence (P53779 64-359 limits assumed): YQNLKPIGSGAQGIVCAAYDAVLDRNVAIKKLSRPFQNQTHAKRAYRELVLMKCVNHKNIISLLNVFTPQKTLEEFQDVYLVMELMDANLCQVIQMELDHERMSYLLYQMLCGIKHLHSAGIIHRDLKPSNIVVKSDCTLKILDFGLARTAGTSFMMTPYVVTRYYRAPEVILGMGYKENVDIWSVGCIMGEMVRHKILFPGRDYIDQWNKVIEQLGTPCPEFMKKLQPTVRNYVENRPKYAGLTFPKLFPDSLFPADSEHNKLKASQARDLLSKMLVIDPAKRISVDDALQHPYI

SMILES	ΔTm SPRK1 (SPRK1) [°C]	ΔTm NEK7 (NEK7) [°C]	ΔTm TLK1 (TLK1) [°C]	ΔTm BRPF1B (BRPF1B) [°C]	ΔTm MAPKAPK2 (MAPKAPK2) [°C]	ΔTm MAPK8 (MAPK8) [°C]	ΔTm MAP3K5 (MAP3K5) [°C]	ΔTm RPS6KA5 (RPS6KA5) [°C]	ΔTm EPHB1 (EPHB1) [°C]	Kd (JNK3) [nM]	Kd (CDK2) [nM]	EC50 (CDK1/Cyclin B1) [nM]	EC50 (CDK5/CDK5R1) [nM]	EC50 (CDK5/CDK5R2) [nM]	Kd (CDK5) [nM]	unmetabolized compound detected [1] [%]	EC50 (PCTAIRE family) [nM]
CC(C)OC(=O)c1cc(Nc2ccnc(NCc3ccc(NC(=O)OC(C)(C)C)cc3)n2)n[nH]1 [42d, isopropyl 3-((2-((4-((tert-butoxycarbonyl)amino)benzyl)amino)pyrimidin-4-yl)amino)-1H-pyrazole-5-carboxylate]	-0.2	-1.7	-1.2	-1.4	-0.3	-0.8	0.1	0.8	0.9								
N#CCc1ccc(Nc2nccc(Nc3cc(C4CC4)[nH]n3)n2)cc1 [compound 1, reference compound]										26.1	4.6	63.1 ± 10.4	30.3 ± 10.3	11.9 ± 2.8	27.6		
CC(C)(C)OC(=O)Nc1ccc(CNc2nccc(Nc3cc(C(=O)OC(C)(C)C)[nH]n3)n2)cc1 [43d, tert-butyl 3-((2-((4-((tert-butoxycarbonyl)amino)benzyl)amino)pyrimidin-4-yl)amino)-1H-pyrazole-5-carboxylate]	0.4	-1.0	-1.4	-0.9	0.2	-0.1	0.1	1.7	1.0							79	20 to 120
COC(=O)c1cc(Nc2ccnc(NCc3ccc(NC(=O)OC(C)(C)C)cc3)n2)[nH]n1 [21i, methyl 5-((2-((4-((tert-butoxycarbonyl)amino)benzyl)amino)pyrimidin-4-yl)amino)-1H-pyrazole-3-carboxylate]												9300 ± 5790	28600 ± 4650	38600 ± 5850		16	
